Holding throughout (type): cell-based
One experiment deals with human blood platelets. As to the kind of experiment: In vitro inhibition of ADP-induced human platelet aggregation (platelet-rich plasma, aggregometer). How it is done:
Procedure for Determining In Vitro Platelet Aggregation-Inhibitory Activity. Adenosine diphosphate (ADP) was used to induce platelet aggregation and was utilized as the sodium salt. A 10 mM stock solution was prepared fresh before each use in modified Tyrode's buffer and working dilutions were prepared with modified Tyrode's buffer immediately prior to use. The buffer contained NaCl (137.00 mM), KCl (2.70 mM), NaHCO3 (11.90 mM), NaH2 PO4 H2 O (0.36 mM) and glucose (5.60 mM) in redistilled water. Adjustment to pH 7.4 was effected by addition of 1N HCl.
The blood was transferred into plastic centrifuge tubes containing 3.2% sodium citrate (blood/citrate ratio 8:1) and centrifuged at 120Xg for 15 minutes at 23° C., yielding platelet-rich plasma (PRP); platelet-poor-plasma (PPP) was obtained by centrifugation of citrated whole blood at 1,100Xg for 15 min at 23° C. The platelet count of PRP was determined and adjusted to a final count of 300,000 platelet per mm^3 by dilution with autologous PPP. […] The plasma so obtained was transferred using a 1.0 ml Centaur pipette into a 50 ml polyethylene centrifuge tube. In order to maintain plasma pH in the appropriate range, the air in the tubes are displaced gently (2 minutes) with a 5% (CO2 -95% air (v/v) mixture and the tube capped. The plasma was maintained at 37° C. in a water bath until used in the aggregation experiments.
Assays of platelet aggregation were performed at least in duplicate, using plasma acquired from different donors, employing a method developed by Quintana, et al. (Quintana, et al., Relationships Between the Chemical Constitution of Carbamoylpiperidines and Related Compounds, and Their Inhibition of ADP-Induced Human Blood Platelet Aggregation, Thromb. Res. Vol. 22, Pages 665-680, 1981); Quintana, et al., Effects of Ethanol and of Other Factors on ADP-Induced Aggregation of Human Blood Platelets in Vitro, Thromb. Res., Vol. 20, Pages 405-415, 1980) (cf. Born, Nature, Vol. 194, Pages 927-929, 1962) and Mustard, et al., J. Lab. Clin. Med., Vol. 64, Pages 548-559, 1964).
Initially, in each experiment, 0.45-ml aliquots of PRP were placed in siliconized cuvettes and stirred (1,100 rpm) in the aggregometer at 37° C. to ascertain the absence of spontaneous aggregation. Appropriate ADP solutions (50 μl) were subsequently injected using a Hamilton microliter syringe to determine the minimal concentration eliciting maximal biphasic aggregation. […] In each case, the concentration of ADP so determined was used in eliciting aggregation throughout each specific set of aggregometric evaluations.
0.5 μl of a solution of the evaluant compound in redistilled 95% ethanol was injected into a stirred ([…]) 0.4-ml aliquot of plasma in a siliconized cuvette in the aggregometer-well (37° C). After 15 seconds, the cuvette was transferred to an incubator (also at 37° C.) and the contents held at this temperature, without stirring, until 2 minutes postinjection. The cuvette was then returned to the aggregometer-well, a base-line being recorded for 2 minutes to detect any spontaneous aggregation. At exactly 4 minutes after injection of the evaluant solution, 50 μl of the appropriate ADP solution was injected and aggregation recorded for 5.5 minutes. Evaluants were studied at least 4 different concentrations. Control experiments (ethanol in a final concentration of 0.095% v/v) were performed in conditions parallel with those involving the respective evaluants, and were initiated either 1 minute prior to or 1 minute after the start of experiments employing the test compounds. This permitted injections to be made precisely at the specified times.

The subject of another experiment is human platelets. Briefly: Inhibition of collagen-induced aggregation, washed aequorin-loaded platelet suspension. The note with it: Homo sapiens, Platelet; collagen-induced aggregation (n = 4); HEPES-buffered saline, 1.0 mM CaCl2; read-out: Ia50 ± S.E. Collagen-induced. How it is done:
(§1) Procedure for Cytosolic Ionized Calcium Determination. The basic procedure of Yamaguchi, et al. (Thromb. Res., Vol. 44, Pages 165-174, 1986) was followed. Blood was collected from six blood donors, aged 24-38 years, who had fasted overnight and affirmed abstinence from alcohol, caffeine and medications of any kind for a period of at least one week prior to donation. […] Platelets were collected (800 g, 15 min), resuspended in and washed (800 g, 15 min) with HEPES-buffered saline (140 mM NaCl, 2.7 mM KCl, 0.1% bovine albumin, 0.5% glucose, 3.8 mM HEPES, pH 7.6) with EGTA (5 mM) and PGE1 (1 μM). The platelet pellet was resuspended in 90 μl of the same buffer and added to 20μl of 3 mg/ml aequorin solution in a 1.5 ml Eppendorf centrifuge tube. Six 1 μl aliquots of DMSO were added at 90 second intervals with brief, gentle mixing on a Vortex mixer and the platelet suspension was incubated 2 minutes after the last addition. One ml of HEPES-buffered saline was added, gently mixed, and again incubated for 2 minutes. The platelets were pelleted (1000 g, 30 sec), resuspended in HEPES-buffered saline to which was added either 1 mM Mg Cl2, (calcium-free buffer) or 1 mM Mg Cl2 and 1 mM Ca Cl2 (calcium buffer), depending on the experiment. The platelet count was adjusted to 3-4×10^5 platelets/μl.
(§2) The Platelet Ionized Calcium Aggregometer (Chrono-Log Corp., Ltd., Havertown, Pa.) was used to obtain simultaneous aggregation and luminescence data under the following experimental conditions: (1) platelet suspension, 1 ml, was equilibrated at 37° C. with stirring at 1100 rpm; (2) 100 μl (1.2 μg) of fibrinogen was added; (3) the vehicle (95% ethanol) or the test compound in vehicle was added; (4) when needed, 10 μl of the desired concentration of EGTA was added 30 seconds prior to addition of the agonist; then (5) the agonist (Collagen, 5 μg or 20 μg) was added and the time noted. At one minute after addition of the agonist in Channel 1, a platelet sample containing fibrinogen in Channel 2 was lysed with 10 μl of a 1:1 solution of Triton X-100 (final concentration 0.005%) 10 mM CaCl2 (final concentration 0.5 mM). Treated and control […] data were corrected for time dependent decay of fluorescence using data from the untreated lysed controls.
(§3) Normally 4 compound-treated samples (at 4 different concentrations) interspersed with 3 control samples were evaluated at 4.5 minute intervals starting 18-23 minutes after the DMSO treatment. The Ia50 values were calculated as described earlier. The compound concentrations effecting 50% inhibition (Ica50) of collagen-induced cytosolic ionized calcium values was determined by linear regression analysis.
Compounds I-rac, (+)-I,(IC) and (-)-I(IA) were evaluated. The Ia50 (collagen-induced aggregation) and Ica50 (compound concentration required to inhibit by 50% the collagen-induced rise in cytosolic ionized calcium)values determined with platelet suspensions in HEPES-buffered saline containing 1.0 mM CaCl2 were as follows: […]

Experiment [1] relates to cytosolic ionized calcium in human platelets. As to the kind of experiment: Inhibition of collagen-induced rise in cytosolic ionized calcium (aequorin luminescence). Conditions: collagen-induced, 1mM [Ca2+]o (n = 4); listed as IA (-)-I; read-out: Ica50 ± S.E. Collagen-induced (50% inhibition of collagen-induced rise in cytosolic ionized calcium). How it is done: as §1, §2, §3
Compounds I-rac, (+)-I,(IC) and (-)-I(IA) were evaluated. The Ia50 (collagen-induced aggregation) and Ica50 (compound concentration required to inhibit by 50% the collagen-induced rise in cytosolic ionized calcium)values determined with platelet suspensions in HEPES-buffered saline containing 1.0 mM CaCl2 were as follows:
Collagen-stimulation of platelets suspended in media containing 1.0 mM of Ca^2+ (FIG. 13) or 1.0 mM (FIG. 14A) or 2.0 mM (FIG. 14B) EGTA (a calcium chelator) gave […] cytosolic ionized calcium peak (aequorin-indicated luminescence). Contrarily, two phases of Ca^2+ mobilization were observed when aequorin-loaded human platelets suspended in a medium containing 0.1 mM EGTA were stimulated with collagen (FIG. 14, designation D). The first corresponded to platelet shape change and the second peak to aggregation. […] The platelet suspension (1.0 ml) was pre-incubated with 1.0 μl of (A) 95% ethanol, (B) a solution of Compound I (14.59 μM) in 95% ethanol, or (C) a solution of Compound I (23.87 μM) in 95% ethanol. Collagen (20 μg) was added at time indicated by the arrows. Luminescence was again recorded at a gain of 0.5. […] Accordingly, the stereo-selective inhibitory properties of the compounds of the present invention appear to be mediated through the inhibition of [Ca^2+ ].

[2] abbreviates: Homo sapiens, Platelet, racemic compounds, ADP-induced, read-out: IC50 (compound concentration which inhibits ADP-induced platelet aggregation by 50%) ± S.E.
[3] abbreviates: Homo sapiens, Platelet, read-out: IC50 (compound concentration which inhibits ADP-induced platelet aggregation by 50%) ± S.E., racemic compounds, ADP-induced.
[4] abbreviates: Homo sapiens, Platelet, read-out: Ia50 ± S.E. ADP-induced, table 4, ADP-induced, 5 to 7 individual determinations.
The mark [5] stands for this setting: Homo sapiens, Platelet, read-out: Ia50 (compound concentrations affecting 50% inhibition of aggregation) ± S.E., Table II, ADP-induced, n = 5 for (0)I and 6 for all others.

Results on 14 molecules are retold here after US5219867A, “Platelet aggregation inhibitory agents” (priority 1992, dated 1993).

Molecules are shown by their SMILES. Counter-ions that a name gives are not always drawn. Like-named read-outs stand apart in the source and are kept apart here.

As to `CCN(CC)CC1CCCN(Cc2ccc(CN3CCCC(CN(CC)CC)C3)cc2)C1` (racemic) [Compound 4, α,α'-Bis[3-(N,N-diethylaminomethyl)-piperidino]-p-xylene tetrahydrochloride], the IC50 is 156 ± 460 µM with human blood platelets (setting [2]) and 1570 µM in the experiment on human blood platelets (Homo sapiens, Platelet, racemic compounds, C = IC50 × 10^-3, read-out: Log1/C (converted)).
Take `O=C(NCc1ccccc1)C1CCCN(Cc2ccc(CN3CCCC(C(=O)NCc4ccccc4)C3)cc2)C1` (racemic) [Compound 5, α,α'-Bis[3-(N-benzylcarbamoyl)piperidino]p-xylene dihydrobromide]: the IC50 in the experiment on human blood platelets (setting [2]) came to 53.6 ± 5.3 µM.
Same read-out and setting: the figure for `CCN(Cc1ccccc1)C(=O)C1CCCN(Cc2ccc(CN3CCCC(C(=O)N(CC)Cc4ccccc4)C3)cc2)C1` (racemic) [Compound 6, α,α'-Bis[3-(N-benzyl-N-ethylcarbamoyl)piperidino]-p-xylene dihydrobromide] is 37.7 ± 4.6 µM; for `CCCN(Cc1ccccc1)C(=O)C1CCCN(Cc2ccc(CN3CCCC(C(=O)N(CCC)Cc4ccccc4)C3)cc2)C1` (racemic) [Compound 7, α,α'-Bis[3-(N-benzyl-N-propylcarbamoyl)piperidino]p-xylene dihydrobromide] it is 72.9 ± 20.8 µM.
The same measure, in the same setting: the figure for `O=C(C1CCCN(Cc2ccc(CN3CCCC(C(=O)N(Cc4ccccc4)Cc4ccccc4)C3)cc2)C1)N(Cc1ccccc1)Cc1ccccc1` (racemic) [Compound 8, α,α'-Bis[3-(N,N-dibenzylcarbamoyl)piperidino] p-xYlene dihydrobromide] is 303 ± 60.8 µM.
In the case of `O=C(C1CCCN(Cc2ccc(CN3CCCC(C(=O)N4CCCCC4)C3)cc2)C1)N1CCCCC1` (racemic) [Compound 10, α,α'-Bis[3-(piperidinocarbonyl)piperidino] p-xylene dihydrobromide], the IC50 in the experiment with human blood platelets (Homo sapiens, Platelet, table 4, ADP-induced, 5 to 7 individual determinations, read-out: Ia50 ± S.E. ADP-induced) was determined as 28.9 ± 8.96 µM.
`CN(Cc1ccccc1)C(=O)C1CCCN(Cc2ccc(CN3CCCC(C(=O)N(C)Cc4ccccc4)C3)cc2)C1` (racemic) [Compound 13c, α,α'-Bis[3-(N-benzyl-N-methylcarbamoyl)piperidino]p-xylene]: the IC50 in the experiment with human blood platelets (setting [3]) worked out at 27.3 ± 3.2 µM; with human blood platelets (setting [4]), 27.3 ± 3.23 µM.
`CN(Cc1ccccc1)C(=O)C1CCCN(Cc2ccc(CN3CCCC(C(=O)N(C)Cc4ccccc4)C3)cc2)C1` (single isomer, unassigned) [Compound 13c-A]: in the experiment with human blood platelets (read-out: Ia50 ± S.E. ADP-induced, table 4, ADP-induced, 5 to 7 individual determinations, listed as 13c-A(-)), the IC50 worked out at 57.4 ± 6.01 µM.
For the molecule `CN(Cc1ccccc1)C(=O)C1CCCN(Cc2ccc(CN3CCCC(C(=O)N(C)Cc4ccccc4)C3)cc2)C1` (single isomer, unassigned) [Compound 13c-C], the IC50 in the experiment on human blood platelets (read-out: Ia50 ± S.E. ADP-induced, table 4, ADP-induced, 5 to 7 individual determinations, listed as 13c-C(+)) worked out at 9.55 ± 1.47 µM.
`CCN(CC)C(=O)C1CCCN(Cc2ccc(CN3CCCC(C(=O)N(CC)CC)C3)cc2)C1` (single isomer, unassigned) [IA]: the IC50 in the experiment on human platelets was determined as 199 µM; in experiment [1], 171 µM; in the experiment on human blood platelets (setting [5]), 233 ± 52.1 µM; in the experiment with human blood platelets (Homo sapiens, Platelet, read-out: Ia50 ± S.E. ADP-Induced, table 3, ADP-induced (n = 5-6)), 233 µM.
For the molecule `CN(C)CCCN1c2ccccc2Sc2ccc(Cl)cc21` [Chlorpromazine, reference compound], in the experiment with human blood platelets (setting [5]), the IC50 came out at 156 ± 25.5 µM.
On to `CCCCN(C)C(=O)C1CCCN(Cc2ccc(CN3CCCC(C(=O)N(C)CCCC)C3)cc2)C1` (stereo not drawn) [Compound 9, α,α'-Bis[3-(N-methyle-N-butylcarbamoyl)piperidino] p-xylene dihydrobromide], for which the IC50 in the experiment with human blood platelets (setting [3]) came to 22.1 ± 5.5 µM.
Consider `CN(Cc1ccccc1)C(=O)[C@@H]1CCCN(Cc2ccc(CN3CCC[C@H](C(=O)N(C)Cc4ccccc4)C3)cc2)C1` [Compound 13c-B], for which, in the experiment with human blood platelets (setting [4]), the IC50 stood at 46.9 ± 8.37 µM.
Take `CN1CCN(CCCN2c3ccccc3Sc3ccc(C(F)(F)F)cc32)CC1` [Trifluoperazine, reference compound]: the IC50 in the experiment with human blood platelets (Homo sapiens, Platelet, Table II, ADP-induced, n = 5 for (0)I and 6 for all others, read-out: Ia50 (compound concentrations affecting 50% inhibition of aggregation) ± S.E.) amounted to 202 ± 21.9 µM.
